Assay results as given in patent US20100029778A1, “HAIR AND/OR SCALP TREATMENT COMPOSITIONS” (Unilever Home & Personal Care USA, Division of Conopco, Inc., priority 2001, published 2010).
“And” between values parts separate entries of the source, which are not always exact repeats. Equal values may be shown once.

How the values were obtained:
histamine-induced itch [1] = assay: Histamine-induced itch, topically applied Aqueous Cream BP, histamine iontophoresis, VAS; settings: for Itch score (area under the curve): volar forearm skin, after 4 hours, VAS area under curve 0 to 5 minutes; for Itch score % of control: control = vehicle alone
histamine-induced itch [2] = assay: Histamine-induced itch, test material topically applied in ethanol:Vaseline Intensive Care Lotion 1:1; format: in vivo, human; settings: for Itch score % of control: 50 mM in ethanol mixed 1:1 with VICL, control = ethanol:VICL vehicle alone of the same run; for Effect on histamine-induced itch (in words): topically applied in the presence of a lotion
histamine-induced itch [3] = assay: Histamine-induced itch, test material applied under water-impermeable patch for 24 hours before histamine challenge; settings: applied by patch
[4] = HU-210 0.05% (w/v) in Aqueous Cream BP
[5] = HU-210 0.5% (w/v) in Aqueous Cream BP

With `CCCCCCC(C)(C)c1cc(O)c2c(c1)OC(C)(C)[C@@H]1CC=C(CO)C[C@@H]21` [HU-210, (6aR)-trans-3-(1,1-Dimethylheptyl)-6a,7,10,10a-tetrahydro-1-hydroxy-6,6-dimethyl-6H-dibenzo[b,d]pyran-9-methanol] the “Itch score (area under the curve)” value (histamine-induced itch [1]; [4]) was 101, the “Itch score % of control” value (histamine-induced itch [1]; [4]) was 7.3% and the “Itch score (area under the curve)” value (histamine-induced itch [1]; [5]) was 119. For the same compound, the “Itch score % of control” value (histamine-induced itch [1]; [5]) was 6.2% and the “Effect on histamine-induced itch (in words)” value (from here on “Effect”) (histamine-induced itch [1]; topically applied in cream) was “capable of reducing histamine-induced itch”.
In the case of `CCCCC/C=C\C/C=C\CCCCCCCC(=O)NCCO` [LAMEA, linoleoylethanolamine], the “Itch score % of control” value (histamine-induced itch [2]) is reported as 169% and 108% and 100% and the “Effect” value (histamine-induced itch [2]) is reported as “unable to demonstrate any anti-pruritic action or even appeared to exacerbate the itch response”.
With `CCCCCCCCCCCCCCCC(=O)NCCO` [PEA, Palmitoylethanolamide] the “Effect” value (histamine-induced itch [3]) was “can inhibit histamine-induced itch” and the “Effect” value (histamine-induced itch [2]) was “can inhibit histamine-induced itch”.
With `CCCCCCCCCCCCCCCCCC(=O)NCCO` [SEA] the “Itch score % of control” value (histamine-induced itch [2]) was 231% and 260% and 190% and the “Effect” value (histamine-induced itch [2]) was “unable to demonstrate any anti-pruritic action or even appeared to exacerbate the itch response”.
